Reference: patent US12642808B2, “Methods of inhibiting Klebsiella pneumoniae carbapenemase-2” (priority 2023, dated 2026)
Where two headings read alike, the source gives them in different places.

Experiments:
KPC-74T [1] = assay: Chessboard minimum inhibitory concentration determination; format: cell-based, Escherichia coli; details: for MIC: Escherichia coli; for MIC value decreased: combined use of the two drugs versus alone
Text: (§1) KPC-74T, carrying Escherichia coli containing KPC-2 plasmid, constructed by the laboratory; Hvkp, obtained through laboratory isolation; AN2718 purchased from Target Mol Technology Co., Ltd; BBLTM Mueller Hinton II Broth was purchased from BD Company in the United States; Meropenem was purchased from Meilun Biotechnology Co., Ltd; LB Broth was purchased from Qingdao High tech Industrial Park Haibo Biotechnology Co., Ltd; Enzyme marker (UV1900i, Shimadzu company);
This study referenced the standards of the Clinical and Laboratory Standards Institute (CLSI) in the United States and the laboratory's previous improvement methods and measured partial inhibitory concentrations through a chessboard test. Firstly, KPC-74T was activated, inoculated on Lysogeny broth, and cultured overnight at 37° C. Add 100 μL MHB medium to each well in a sterile 96 well plate; Then add AN2718 solution 100 μL to the first line and perform gradient dilution along the vertical axis. Then, add Meropenem solution to the first column and dilute it in a gradient along the abscissa. Finally, in addition to the negative control, add 100 μL of bacterial suspension ≈1×10^6 CFUs mL^−1. After completing the above operations, place the 96 well plate in a 37° C. constant temperature incubator and incubate for 18 hours. Observe the bacterial solution of each well under appropriate light, and observe the drug concentration corresponding to the complete absence of bacterial growth wells, which is MIC. Determine synergistic effects by calculating FIC. FIC can be calculated according to formula (1): […]
MICa is a separate MIC of compound a; MICab is the MIC of compound a combined with compound b; MICb is a separate MIC of compound b; MICba is the MIC of compound b combined with compound a; FICa is the FIC of compound a; FICb is the FIC of compound b. According to the standard definition, FICI≤0.5 is defined as synergy; 0.5<FICI≤1 is defined as an additive; […] is defined as no difference; FICI>4 is defined as an antagonistic effect.

KPC-41 = KPC-41 (Klebsiella pneumoniae, UniProt Q9F663); assay: Enzyme activity determination (nitrocefin hydrolysis); format: biochemical; details: read-out: semi-inhibitory concentration IC50 on KPC-41
KPC-74T [2] = assay: Time sterilization (time-killing) curve; format: cell-based, Escherichia coli
Text: as §1
Inoculate overnight cultured bacterial KPC-74T in a 1:10000 ratio onto MHB medium and incubate at 225 rpm at 37° C. for 2 hours (early exponential growth phase) or 5 hours (late exponential growth phase). After incubation, add the corresponding concentration of AN2718 or Meropenem solution and incubate it at 37° C. and 225 rpm. Set the time point to 0, 1, 3, 5, 7, and 24 hours. At each time point, absorb 100 μL bacterial solution, centrifuged at 10000 g rotating speed for 1 min, resuspended with PBS, diluted in ten fold gradient, and absorbed 10 μL of each gradient drops onto MHA plate. Place the plates in a 37° C. incubator for 24 hours and remove them. Count each plate and calculate the total bacterial count. Repeat the experiment three times.

KPC-93 = KPC-93 (Klebsiella pneumoniae, UniProt Q9F663); assay: Enzyme activity determination (nitrocefin hydrolysis); format: biochemical; details: read-out: semi-inhibitory concentration IC50 for KPC-93
KPC-2 enzyme = KPC-2 enzyme (Klebsiella pneumoniae, UniProt Q9F663); assay: as above; format: biochemical
Method: Enzyme activity was measured using a Shimadzu UV-1900i spectrophotometer in 50 mM phosphate buffer (pH 7.0) to measure the inhibitory effect. The total enzyme activity reaction system is 500 μL. The reaction temperature was set to 37° C., and 0.3 nM KPC-2 enzyme was pre-incubated with different concentrations of AN2718 in phosphate buffer (pH 7.0) for 5 minutes before adding 60 μL nitrocefin. Measure the hydrolysis inhibition effect of AN2718 on nitrocefin by detect change of absorbance. The 50% inhibition concentration is determined by the inhibition curve of the control activity percentage and inhibitor concentration. Repeat the experiment three times.

Hvkp2 strain = assay: Treatment of mice infected with Hvkp2 strain; format: in vivo, ICR mice; details: monotherapy 16 mg/kg; for survival rate: after 24 hours of Hvkp2 infection, mice
Method: The experiment was conducted on mice infected with Hvkp2 strain for treatment. A total of 35 male ICR mice of SPF grade at four weeks old were selected and divided into seven groups. The […] were set as the saline control group, AN2718 monotherapy group (16 mg/kg), Meropenem monotherapy group (16 mg/kg), AN2718/Meropenem combination group 1 (8 mg/kg+8 mg/kg), AN2718/Meropenem combination group 2 (8 mg/kg+16 mg/kg), AN2718/Meropenem combination group 3 (16 mg/kg+8 mg/kg) and AN2718/Meropenem combination group 4 ([…]), respectively. First, incubate Hvkp2 overnight at 37° C., activate it, and resuspend it with physiological saline. Adjust the bacterial concentration to approximately 1×10^6 CFU/mL, spare. […]. Inject saline or medication 1 hours after infection. After 12 hours, the second dose of medication was administered for treatment, with a total of five injections and a time interval of 12 hours between each injection. Observe and count the survival status of each group of mice during the experiment.
This experiment used SPSS 20.0 software to statistically process and analyze the data represented by (X±SD). Multiple comparisons and one-way ANOVA were used to analyze and compare the data of each group. (P<0.05 indicates a significant difference, and P<0.01 indicates a highly significant difference).

KPC-41, sequence (Q9F663 1-268, added parts left off, change not shown, form open): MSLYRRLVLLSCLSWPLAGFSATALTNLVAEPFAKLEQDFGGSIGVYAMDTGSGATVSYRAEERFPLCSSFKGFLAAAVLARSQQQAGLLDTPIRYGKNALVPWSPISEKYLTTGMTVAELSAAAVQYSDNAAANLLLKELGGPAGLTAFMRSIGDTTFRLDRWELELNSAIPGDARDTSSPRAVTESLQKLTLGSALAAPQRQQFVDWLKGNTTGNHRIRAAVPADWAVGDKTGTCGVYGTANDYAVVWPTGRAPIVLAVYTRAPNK
KPC-93, sequence (Q9F663 25-293 limits assumed): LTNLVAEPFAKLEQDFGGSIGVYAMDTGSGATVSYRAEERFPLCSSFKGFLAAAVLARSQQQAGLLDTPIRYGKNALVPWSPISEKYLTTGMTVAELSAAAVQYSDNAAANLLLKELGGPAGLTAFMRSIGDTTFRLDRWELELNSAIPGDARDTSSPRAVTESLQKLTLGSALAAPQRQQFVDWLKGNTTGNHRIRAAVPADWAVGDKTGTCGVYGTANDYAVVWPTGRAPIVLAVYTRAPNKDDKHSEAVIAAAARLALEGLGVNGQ
KPC-2 enzyme, sequence (Q9F663 25-293 limits assumed): as above

## OB1OCc2cc(Cl)ccc21 [AN2718, 5-chloro-1,3-dihydro-1-hydroxy-2,1-benzoxaborole]
KPC-74T [1]; 18 h, read-out: AN2718 S-MIC
  MIC: 13.4 µg/mL
KPC-74T [1]; KPC-74T
  MIC value decreased: four
KPC-41
  IC50: 370000 nM
KPC-74T [2]; AN2718 single use, up to 160 μM (26.88 μg/mL), within 24 hours
  effect on the growth of KPC-74T: has no effect on the growth of KPC-74T
KPC-93
  IC50: 116 nM
KPC-2 enzyme
  IC50: 499 nM
Hvkp2 strain
  survival rate: 40%
Hvkp2 strain; between 36h and 132h, mice infected with Hvkp2
  survival rate versus Meropenem group: significantly higher

## C[C@@H](O)[C@H]1C(=O)N2C(C(=O)O)=C(S[C@@H]3CN[C@H](C(=O)N(C)C)C3)[C@H](C)[C@H]12 [Meropenem]
KPC-74T [1]; AN2718 in combination with Meropenem, KPC-74T
  FICI: 0.25
KPC-74T [1]; AN2718 in combination with Meropenem, KPC-74T, from FICI
  Result: synergy (FICI≤0.5 is defined as synergy)
KPC-74T [1]; read-out: Drug S-MIC
  MIC: 64 µg/mL
KPC-74T [1]; KPC-74T
  MIC value decreased: 1024 times
KPC-74T [2]; Meropenem 4 μg/mL and 8 μg/mL with AN2718 40 μM
  killing of bacteria within 24 h: could not kill all bacteria
KPC-74T [2]; Meropenem 4 μg/mL with AN2718 80 μM
  killing of bacteria within 24 h: can kill most of the bacteria
KPC-74T [2]; Meropenem 4 μg/mL with AN2718 160 μM
  killing of bacteria within 24 h: can kill all bacteria
KPC-74T [2]; Meropenem 128 μg/mL with AN2718 20 μM
  killing of bacteria within 24 h: all bacteria can be killed
KPC-74T [2]; Meropenem alone 2 μg/mL˜64 μg/mL, at 24 hours
  number of colonies versus control group: no significant difference
KPC-74T [2]; Meropenem alone 2 μg/mL˜64 μg/mL, first 5 hours
  effect on the growth of KPC-74T: a certain inhibitory effect
KPC-74T [2]; Meropenem alone 128 μg/mL
  effect on the growth of KPC-74T: significant inhibitory effect
  killing of bacteria within 24 h: still cannot kill all bacteria
KPC-74T [2]; Meropenem remaining concentrations (above 4 μg/mL) with AN2718 80 μM
  killing of bacteria within 24 h: can still kill all the bacteria
KPC-74T [2]; Meropenem rest concentrations (above 8 μg/mL) with AN2718 40 μM
  killing of bacteria within 24 h: could still effectively kill bacteria
Hvkp2 strain
  survival rate: 20%
